Among the test systems are A498 renal; HCT-116 colon; HOP-92 NSCLC; K-562 leukemia; LOX IMVI melanoma; MOLT-4 leukemia; NCI-H226 lung; NCI-H23 lung; SF-268 CNS; SF-295 CNS.
Holding throughout (experiment): inhibition of tumour cell growth, NCI panel, 48 h

These results are taken from PubChem BioAssay (NCI).

Several values for one entry are separate records, joined by “and”; a condition that tells them apart may be missing. Equal values may be shown once.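 Dose response: 5 concentrations. Exposure: 48 h. Format: 96-well plates. Endpoint: linear interpolation; highest concentration if not reached. GI50 is the concentration that inhibits growth by half. TGI marks complete inhibition of growth.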

Regarding `O=C(O)CCNc1ccccc1C(=O)O`, the TGI in the assay on A498 renal, with HCT-116 colon, with HOP-92 NSCLC, in the assay on K-562 leukemia, in the assay on LOX IMVI melanoma and in the assay on MOLT-4 leukemia was > 100 µM throughout. The TGI in the assay with NCI-H226 lung, with NCI-H23 lung, with SF-268 CNS and in the assay on SF-295 CNS was > 100 µM in each case.

`CN1C(=O)CC(c2cccc(C3CC(=O)N(C)C3=O)n2)C1=O` (stereo not drawn): the TGI in the assay with A498 renal, in the assay with HCT-116 colon, in the assay on HOP-92 NSCLC, in the assay on K-562 leukemia, in the assay with LOX IMVI melanoma and in the assay with MOLT-4 leukemia was > 100 µM throughout. Further, the TGI in the assay with NCI-H226 lung, in the assay with NCI-H23 lung, with SF-268 CNS and with SF-295 CNS was > 100 µM in each case.

On to `Cc1ccccc1NC(=O)C(=O)C(C#N)c1ccc(Cl)cc1` (stereo not drawn), for which the TGI in the assay with A498 renal was > 100 µM; with HCT-116 colon, > 100 µM; in the assay on HOP-92 NSCLC it was > 100 µM; in the assay with K-562 leukemia, > 100 µM; in the assay on LOX IMVI melanoma, 31 µM; in the assay with MOLT-4 leukemia, > 100 µM. For the same compound, the TGI in the assay with NCI-H226 lung, in the assay with NCI-H23 lung, in the assay on SF-268 CNS and in the assay with SF-295 CNS was > 100 µM in each case.

Turning to `C[C@@H]1COCCN1c1cc(C2([S@](C)(=N)=O)CC2)nc(-c2ccnc3[nH]ccc23)n1`, the GI50 in the assay on A498 renal was 0.43 µM and 1.27 µM; with HCT-116 colon, 4.67 µM and 4.53 µM; in the assay with HOP-92 NSCLC, 1.34 µM and 1.14 µM; with K-562 leukemia it was 3.76 µM and 2.96 µM; in the assay with LOX IMVI melanoma it was 0.903 µM and 2.75 µM; with MOLT-4 leukemia, 2.58 µM and 3.39 µM. Also, the GI50 in the assay with NCI-H226 lung is 4.98 µM and 8.53 µM; in the assay with NCI-H23 lung, 1.74 µM and 1.7 µM; with SF-268 CNS it was 7.1 µM and > 10 µM; in the assay with SF-295 CNS, 2.6 µM and 3.21 µM. For the same compound, the TGI is 3.71 µM and 8.78 µM in the assay on A498 renal; > 87.5 µM with HCT-116 colon; 14 µM and 8.77 µM in the assay on HOP-92 NSCLC; > 100 µM in the assay with K-562 leukemia; 12.7 µM and > 10 µM in the assay with LOX IMVI melanoma; 9.54 µM and > 10 µM with MOLT-4 leukemia. Besides, the TGI in the assay on NCI-H226 lung was 51.3 µM and > 10 µM; with NCI-H23 lung it was 34.3 µM and > 10 µM; in the assay with SF-268 CNS it was > 100 µM; with SF-295 CNS, 32.9 µM and > 10 µM.

As to `COC(=O)[C@@]12C(=O)C=CC(=O)[C@@H]1C1C(=CC2COC(C)=O)O[C@@H]2OC3(CCCCC3)O[C@H]12` (stereo partly drawn), the TGI came to 37.4 µM in the assay with A498 renal; 15.5 µM in the assay with HCT-116 colon; 21.2 µM in the assay with HOP-92 NSCLC; 43.8 µM in the assay with K-562 leukemia; 24.6 µM with LOX IMVI melanoma; 21 µM in the assay with MOLT-4 leukemia. Moreover, the TGI was 32.4 µM in the assay on NCI-H226 lung, 35.9 µM with NCI-H23 lung, 23.7 µM in the assay on SF-268 CNS and 29.7 µM in the assay with SF-295 CNS.

Regarding `COc1cc2c3c(n(CCCN)c(=O)c2cc1OC)-c1ccccc1C3=O`, the GI50 was 1.9 µM with A498 renal; 0.0101 µM in the assay on HCT-116 colon; 15.2 µM in the assay with HOP-92 NSCLC; 0.911 µM in the assay on K-562 leukemia; 0.125 µM with LOX IMVI melanoma; 4.31 µM in the assay with NCI-H226 lung. The GI50 in the assay with NCI-H23 lung is 1.25 µM; with SF-268 CNS, 1.71 µM; in the assay on SF-295 CNS, 0.0709 µM. For the same compound, the TGI in the assay on A498 renal came to 9.51 µM; in the assay on HCT-116 colon, 0.172 µM; in the assay with HOP-92 NSCLC it was 36.7 µM; in the assay with LOX IMVI melanoma it was 1.02 µM; in the assay on MOLT-4 leukemia, 7.12 µM; in the assay on NCI-H226 lung, 16.1 µM. In addition, the TGI is 6.03 µM in the assay on NCI-H23 lung, > 21.6 µM in the assay on SF-268 CNS and 5.24 µM with SF-295 CNS.

As for `COc1ccc2oc(=O)cc(C(c3ccc[nH]3)c3ccc[nH]3)c2c1`, the GI50 with A498 renal is 0.104 µM; in the assay on HCT-116 colon, 0.328 µM; in the assay with HOP-92 NSCLC it was 0.0985 µM; in the assay with K-562 leukemia it was 0.118 µM; with LOX IMVI melanoma, 0.104 µM; in the assay with MOLT-4 leukemia, 0.111 µM. Moreover, the GI50 in the assay on NCI-H226 lung was 0.146 µM; in the assay with NCI-H23 lung it was 0.11 µM; in the assay with SF-268 CNS, 0.129 µM; in the assay on SF-295 CNS it was 0.092 µM. For the same compound, the TGI in the assay with A498 renal is 0.437 µM; in the assay on HCT-116 colon, 10.6 µM; in the assay with HOP-92 NSCLC, 2.83 µM; with K-562 leukemia it was 20.8 µM; in the assay on LOX IMVI melanoma, 7.57 µM; in the assay on MOLT-4 leukemia, 12 µM. The TGI in the assay on NCI-H226 lung came out at 24.4 µM; with NCI-H23 lung, 14 µM; in the assay on SF-268 CNS, 16.3 µM; in the assay on SF-295 CNS it was 0.214 µM.

With `CC12CCC3C(CCC4Cc5[nH]c6ccccc6c5CC43C)C1CCC2O` (stereo not drawn), the GI50 is 0.696 µM with A498 renal; 0.501 µM in the assay with HCT-116 colon; > 100 µM in the assay on HOP-92 NSCLC; 1.01 µM in the assay on LOX IMVI melanoma; 2.55 µM in the assay on MOLT-4 leukemia; 6.08 µM in the assay on NCI-H226 lung. Moreover, the results for the GI50 in the assay on NCI-H23 lung, with SF-268 CNS and with SF-295 CNS were 1.81 µM, 2.55 µM and 0.3 µM, respectively. Also, the TGI with A498 renal was 6.44 µM; in the assay with HOP-92 NSCLC, > 100 µM; in the assay with LOX IMVI melanoma it was 7.13 µM; in the assay on MOLT-4 leukemia it was > 100 µM; with NCI-H226 lung, > 100 µM; with NCI-H23 lung, > 24.8 µM. The TGI in the assay on SF-268 CNS is > 100 µM; with SF-295 CNS, 3.26 µM.

`Cc1ccc(NC(=O)c2cc3cc(N=Nc4ccc(Br)cc4)ccc3oc2=O)cc1`: the TGI in the assay with A498 renal, in the assay on HCT-116 colon, in the assay on HOP-92 NSCLC, in the assay on LOX IMVI melanoma, with MOLT-4 leukemia and with NCI-H226 lung was > 100 µM each time. Besides, the TGI in the assay on NCI-H23 lung, in the assay with SF-268 CNS and with SF-295 CNS was > 100 µM in each case.

As to `Cc1c(N2CCCC2)cc2c(c1NC(=O)c1ccccc1Cl)C(C)(C)CC2(C)C`, the TGI with A498 renal is 29.1 µM; in the assay with HCT-116 colon it was 22.8 µM; in the assay on HOP-92 NSCLC it was 24 µM; with K-562 leukemia it was > 100 µM; with LOX IMVI melanoma, 27.4 µM; in the assay with NCI-H226 lung it was 41.5 µM. Also, the figures for the TGI with NCI-H23 lung, with SF-268 CNS and with SF-295 CNS were 28.5 µM, 30.6 µM and 26.8 µM, respectively.
